Activity calls are given as the source filed them. How the calls were made is not given here.

This passage reports mutagenic call results from PubChem BioAssay AID1259407 (Chemical Carcinogenesis Research Information System (CCRIS), 2018).

In this data set the test system is CCRIS mutagenicity, Ames/micronucleus/aberration tests. Description: CCRIS mutagenicity studies. The following applies: Test System: AMES SALMONELLA TYPHIMURIUM
Setting [1] is: Strain/Indicator: TA98, Metabolic Activation: RAT, LIVER, S-9, AROCLOR 1254, Method: STANDARD PLATE.
Where [2] appears, read: Strain/Indicator: TA97, Metabolic Activation: NONE, Method: PREINCUBATION
Setting [3] is: Strain/Indicator: TA98, Metabolic Activation: NONE, Method: PREINCUBATION
[4] abbreviates: Strain/Indicator: TA100, Metabolic Activation: NONE, Method: PREINCUBATION
Setting [5] is: Strain/Indicator: TA1535, Metabolic Activation: NONE, Method: PREINCUBATION

Take `CCN(CCCC(=O)O)N=O`: under “Strain/Indicator: TA1535, Metabolic Activation: RAT, LIVER, S-9, KC500 OR PHENOBARBITAL, Method: LIQUID SUSPENSION”, the mutagenic call was “active; positive”.

With `Cc1nc2c(C)c(C)c3c(nc(N)n3C)c2nc1C`, the mutagenic call under setting [1] is “active; positive”.

`ClCC(Cl)Cl`: the mutagenic call runs as follows: (Strain/Indicator: TA97, Metabolic Activation: HAMSTER, LIVER, S-9, AROCLOR 1254 (10%), Method: PREINCUBATION) “inactive; negative”; (Strain/Indicator: TA97, Metabolic Activation: HAMSTER, LIVER, S-9, AROCLOR 1254 (30%), Method: PREINCUBATION) “inactive; negative”; under setting [2], “inactive; negative”; (Strain/Indicator: TA97, Metabolic Activation: NONE, Method: STANDARD PLATE) “active; positive”; (Strain/Indicator: TA97, Metabolic Activation: RAT, LIVER, S-9, AROCLOR 1254 (10%), Method: PREINCUBATION) “inactive; negative”; (Strain/Indicator: TA97, Metabolic Activation: RAT, LIVER, S-9, AROCLOR 1254 (30%), Method: PREINCUBATION) “inactive; negative”. Besides, the mutagenic call is, setting by setting: (Strain/Indicator: TA97, Metabolic Activation: RAT, LIVER, S-9, AROCLOR 1254, Method: STANDARD PLATE) “active; positive”; (Strain/Indicator: TA98, Metabolic Activation: HAMSTER, LIVER, S-9, AROCLOR 1254 (10%), Method: PREINCUBATION) “inactive; negative”; (Strain/Indicator: TA98, Metabolic Activation: HAMSTER, LIVER, S-9, AROCLOR 1254 (30%), Method: PREINCUBATION) “inactive; negative”; under setting [3], “inactive; negative”; (Strain/Indicator: TA98, Metabolic Activation: NONE, Method: STANDARD PLATE) “inactive; negative”; (Strain/Indicator: TA98, Metabolic Activation: RAT, LIVER, S-9, AROCLOR 1254 (10%), Method: PREINCUBATION) “inactive; negative”. Also, the mutagenic call is “inactive; negative” (Strain/Indicator: TA98, Metabolic Activation: RAT, LIVER, S-9, AROCLOR 1254 (30%), Method: PREINCUBATION); “inactive; negative” under setting [1]; “inactive; negative” (Strain/Indicator: TA100, Metabolic Activation: HAMSTER, LIVER, S-9, AROCLOR 1254 (10%), Method: PREINCUBATION); “inactive; negative” (Strain/Indicator: TA100, Metabolic Activation: HAMSTER, LIVER, S-9, AROCLOR 1254 (30%), Method: PREINCUBATION); “inactive; negative” under setting [4]; “active; positive” (Strain/Indicator: TA100, Metabolic Activation: NONE, Method: STANDARD PLATE). For the same compound, the mutagenic call reads like this: (Strain/Indicator: TA100, Metabolic Activation: RAT, LIVER, S-9, AROCLOR 1254 (10%), Method: PREINCUBATION) “inactive; negative”; (Strain/Indicator: TA100, Metabolic Activation: RAT, LIVER, S-9, AROCLOR 1254 (30%), Method: PREINCUBATION) “inactive; negative”; (Strain/Indicator: TA100, Metabolic Activation: RAT, LIVER, S-9, AROCLOR 1254, Method: STANDARD PLATE) “inactive; negative”; (Strain/Indicator: TA104, Metabolic Activation: NONE, Method: STANDARD PLATE) “inactive; negative”; (Strain/Indicator: TA104, Metabolic Activation: RAT, LIVER, S-9, AROCLOR 1254, Method: STANDARD PLATE) “active; positive”; (Strain/Indicator: TA1535, Metabolic Activation: HAMSTER, LIVER, S-9, AROCLOR 1254 (10%), Method: PREINCUBATION) “inactive; negative”. In addition, the mutagenic call runs as follows: (Strain/Indicator: TA1535, Metabolic Activation: HAMSTER, LIVER, S-9, AROCLOR 1254 (30%), Method: PREINCUBATION) “inactive; negative”; under setting [5], “inactive; negative”; (Strain/Indicator: TA1535, Metabolic Activation: RAT, LIVER, S-9, AROCLOR 1254 (10%), Method: PREINCUBATION) “inactive; negative”; (Strain/Indicator: TA1535, Metabolic Activation: RAT, LIVER, S-9, AROCLOR 1254 (30%), Method: PREINCUBATION) “inactive; negative”; (Strain/Indicator: TA1537, Metabolic Activation: HAMSTER, LIVER, S-9, AROCLOR 1254 (10%), Method: PREINCUBATION) “inactive; negative”; (Strain/Indicator: TA1537, Metabolic Activation: HAMSTER, LIVER, S-9, AROCLOR 1254 (30%), Method: PREINCUBATION) “inactive; negative”. The mutagenic call is “inactive; negative” (Strain/Indicator: TA1537, Metabolic Activation: NONE, Method: PREINCUBATION); “inactive; negative” (Strain/Indicator: TA1537, Metabolic Activation: RAT, LIVER, S-9, AROCLOR 1254 (10%), Method: PREINCUBATION); “inactive; negative” (Strain/Indicator: TA1537, Metabolic Activation: RAT, LIVER, S-9, AROCLOR 1254 (30%), Method: PREINCUBATION).

With `N#CCCC#N`, the mutagenic call was “inactive; negative” (Strain/Indicator: TA97, Metabolic Activation: HAMSTER, LIVER, S-9, AROCLOR 1254 (10 OR 30%), Method: PREINCUBATION); “inactive; negative” under setting [2]; “inactive; negative” (Strain/Indicator: TA97, Metabolic Activation: RAT, LIVER, S-9, AROCLOR 1254 (10 OR 30%), Method: PREINCUBATION); “inactive; negative” (Strain/Indicator: TA98, Metabolic Activation: HAMSTER, LIVER, S-9, AROCLOR 1254 (10 OR 30%), Method: PREINCUBATION); “inactive; negative” under setting [3]; “inactive; negative” (Strain/Indicator: TA98, Metabolic Activation: RAT, LIVER, S-9, AROCLOR 1254 (10 OR 30%), Method: PREINCUBATION). Also, the mutagenic call runs as follows: (Strain/Indicator: TA100, Metabolic Activation: HAMSTER, LIVER, S-9, AROCLOR 1254 (10 OR 30%), Method: PREINCUBATION) “inactive; negative”; under setting [4], “inactive; negative”; (Strain/Indicator: TA100, Metabolic Activation: RAT, LIVER, S-9, AROCLOR 1254 (10 OR 30%), Method: PREINCUBATION) “inactive; negative”; (Strain/Indicator: TA1535, Metabolic Activation: HAMSTER, LIVER, S-9, AROCLOR 1254 (10 OR 30%), Method: PREINCUBATION) “inactive; negative”; under setting [5], “inactive; negative”; (Strain/Indicator: TA1535, Metabolic Activation: RAT, LIVER, S-9, AROCLOR 1254 (10 OR 30%), Method: PREINCUBATION) “inactive; negative”.
